The subject of the assay is HBV. The assay can be described thus: HBV inhibition assay in HepAD38 cells (extracellular HBV DNA by direct qPCR). In kind it is cell-based, Hepatitis B virus. The settings on record: Hepatitis B virus, 96 hours; for EC50: 8-point dose-response curve, read-out: HBV inh EC50. Background: In qPCR the cycle at which signal appears reflects the starting amount.
[1] abbreviates: relative to non-treated reference, read-out: Anti HBV Activity (conc μM).

With `C[C@H](N)C(=O)N1C[C@@H]2COc3c(cn(C)c3C(=O)Nc3cc(F)c(F)c(F)c3)S(=O)(=O)N[C@@H]2C1` (mixture of isomers) [Example E67, cis-2-(L-alanyl)-7-methyl-N-(3,4,5-trifluorophenyl)-2,3,3a,4,10,10a-hexahydro-1H,7H-dipyrrolo[3,4-b:3′,4′-f][1,4,5]oxathiazocine-8-carboxamide 5,5-dioxide], the inhibition at 0.1 µM under setting [1] is less than 50%. On the same count and under the same terms, with `Cn1cc2c(c1C(=O)Nc1cc(F)c(F)c(F)c1)OC[C@H]1CN(C(=O)[C@@H](N)CO)C[C@H]1NS2(=O)=O` (mixture of isomers) [Example E68, cis-2-(L-seryl)-7-methyl-N-(3,4,5-trifluorophenyl)-2,3,3a,4,10,10a-hexahydro-1H,7H-dipyrrolo[3,4-b:3′,4′-f][1,4,5]oxathiazocine-8-carboxamide 5,5-dioxide] the figure was less than 50%; with `C[C@@H](O)[C@H](N)C(=O)N1C[C@@H]2COc3c(cn(C)c3C(=O)Nc3cc(F)c(F)c(F)c3)S(=O)(=O)N[C@@H]2C1` (mixture of isomers) [Example E69, cis-2-(L-threonyl)-7-methyl-N-(3,4,5-trifluorophenyl)-2,3,3a,4,10,10a-hexahydro-1H,7H-dipyrrolo[3,4-b:3′,4′-f][1,4,5]oxathiazocine-8-carboxamide 5,5-dioxide], less than 50%. On to `CCOC(=O)N1CC2CCOc3c(cn(C)c3C(=O)Nc3cc(F)c(F)c(F)c3)S(=O)(=O)NC2C1` (mixture of isomers) [Example E156, Cis/Trans Ethyl 7-methyl-8-((3,4,5-trifluorophenyl)carbamoyl)-1,3a,4,10,11,11a-hexahydro-7H-dipyrrolo[3,4-b:3′,4′-f][1,4,5]oxathiazocine-2(3H)-carboxylate 5,5-dioxide], for which the EC50 was less than 1000 nM. In the case of `Cn1cc2c(c1C(=O)Nc1ccc(F)c(F)c1)OC1COCC1NS2(=O)=O` (racemic) [Example E4, trans-N-(3,4-difluorophenyl)-7-methyl-1,3a,4,9a-tetrahydro-3H,7H-furo[3,4-f]pyrrolo[3,4-b][1,4,5]oxathiazepine-8-carboxamide 5,5-dioxide], the EC50 is less than 1000 nM. In addition, the inhibition at 1 µM (1 μM, relative to non-treated reference, read-out: Anti HBV Activity (conc μM)) was greater than 50%.

Consider `Cn1cc2c(c1C(=O)Nc1ccc(F)c(F)c1)OCC1CCCC1NS2(=O)=O` (racemic) [Example E6, cis-N-(3,4-difluorophenyl)-2-methyl-5a,6,7,8,8a,9-hexahydro-2H,5H-cyclopenta[f]pyrrolo[3,4-b][1,4,5]oxathiazocine-1-carboxamide 4,4-dioxide], for which the EC50 is less than 1000 nM. Further, the inhibition at 0.5 µM under setting [1] is greater than 50%. In the case of `Cn1cc2c(c1C(=O)Nc1cc(F)c(F)c(F)c1)OC1COCC1NS2(=O)=O` (racemic) [Example E7, trans-7-methyl-N-(3,4,5-trifluorophenyl)-1,3a,4,9a-tetrahydro-3H,7H-furo[3,4-f]pyrrolo[3,4-b][1,4,5]oxathiazepine-8-carboxamide 5,5-dioxide], the EC50 was less than 1000 nM. `CCOC(=O)N1CC2COc3c(cn(C)c3C(=O)Nc3cc(F)c(F)c(F)c3)S(=O)(=O)NC2C1` (racemic) [Example E10, Cis-Ethyl 7-methyl-8-((3,4,5-trifluorophenyl)carbamoyl)-3a,4,10,10a-tetrahydro-1H,7H-dipyrrolo[3,4-b:3′,4′-f][1,4,5]oxathiazocine-2(3H)-carboxylate 5,5-dioxide]: the EC50 was less than 1000 nM. Moreover, the inhibition at 0.5 µM under setting [1] is greater than 50%. As for `Cn1cc2c(c1C(=O)Nc1cc(F)c(F)c(F)c1)OCC1CNCC1NS2(=O)=O` (racemic) [Example E11, cis-7-methyl-N-(3,4,5-trifluorophenyl)-2,3,3a,4,10,10a-hexahydro-1H,7H-dipyrrolo[3,4-b:3′,4′-f][1,4,5]oxathiazocine-8-carboxamide 5,5-dioxide], the EC50 is less than 1000 nM. In addition, the inhibition at 0.1 µM under setting [1] was greater than 50%. Consider `CN1CC2COc3c(cn(C)c3C(=O)Nc3cc(F)c(F)c(F)c3)S(=O)(=O)NC2C1` (racemic) [Example E12, cis-2,7-dimethyl-N-(3,4,5-trifluorophenyl)-2,3,3a,4,10,10a-hexahydro-1H,7H-dipyrrolo[3,4-b:3′,4′-f][1,4,5]oxathiazocine-8-carboxamide 5,5-dioxide], for which the EC50 was less than 1000 nM. In addition, under setting [1], the inhibition at 0.1 µM is greater than 50%.

For `CCOC(=O)N1CC2COc3c(cn(C)c3C(=O)Nc3ccc(F)c(F)c3)S(=O)(=O)NC2C1` (racemic) [Example E13, Cis-Ethyl 8-((3,4-difluorophenyl)carbamoyl)-7-methyl-3a,4,10,10a-tetrahydro-1H,7H-dipyrrolo[3,4-b:3′,4′-f][1,4,5]oxathiazocine-2(3H)-carboxylate 5,5-dioxide], the EC50 was less than 1000 nM. Moreover, under setting [1], the inhibition at 0.1 µM is greater than 50%. With `CCOC(=O)N1CC2COc3c(cn(C)c3C(=O)Nc3ccc(F)c(C)c3)S(=O)(=O)NC2C1` (racemic) [Example E14, Cis-Ethyl 8-((4-fluoro-3-methylphenyl)carbamoyl)-7-methyl-3a,4,10,10a-tetrahydro-1H,7H-dipyrrolo[3,4-b:3′,4′-f][1,4,5]oxathiazocine-2(3H)-carboxylate 5,5-dioxide], the EC50 is less than 1000 nM. For the same compound, the inhibition at 0.1 µM under setting [1] is greater than 50%. For the compound `CCOC(=O)N1CC2COc3c(cn(C)c3C(=O)Nc3ccc(F)c(Cl)c3)S(=O)(=O)NC2C1` (racemic) [Example E15, Cis-Ethyl 8-((3-chloro-4-fluorophenyl)carbamoyl)-7-methyl-3a,4,10,10a-tetrahydro-1H,7H-dipyrrolo[3,4-b:3′,4′-f][1,4,5]oxathiazocine-2(3H)-carboxylate 5,5-dioxide], the EC50 was less than 1000 nM. Further, the inhibition at 0.1 µM under setting [1] was greater than 50%. Take `CCOC(=O)N1CC2COc3c(cn(C)c3C(=O)Nc3ccc(F)c(C(F)F)c3)S(=O)(=O)NC2C1` (racemic) [Example E16, Cis-Ethyl 8-((3-(difluoromethyl)-4-fluorophenyl)carbamoyl)-7-methyl-3a,4,10,10a-tetrahydro-1H,7H-dipyrrolo[3,4-b:3′,4′-f][1,4,5]oxathiazocine-2(3H)-carboxylate 5,5-dioxide]: the EC50 was less than 1000 nM. The inhibition at 0.1 µM under setting [1] is greater than 50%. With `CCOC(=O)N1CC2COc3c(cn(C)c3C(=O)Nc3ccc(F)c(C#N)c3)S(=O)(=O)NC2C1` (racemic) [Example E17, Cis-Ethyl 8-((3-cyano-4-fluorophenyl)carbamoyl)-7-methyl-3a,4,10,10a-tetrahydro-1H,7H-dipyrrolo[3,4-b:3′,4′-f][1,4,5]oxathiazocine-2(3H)-carboxylate 5,5-dioxide], the EC50 was less than 1000 nM. Moreover, the inhibition at 0.1 µM under setting [1] is greater than 50%. With `CC(C)S(=O)(=O)N1CC2COc3c(cn(C)c3C(=O)Nc3cc(F)c(F)c(F)c3)S(=O)(=O)NC2C1` (racemic) [Example E18, cis-2-(isopropylsulfonyl)-7-methyl-N-(3,4,5-trifluorophenyl)-2,3,3a,4,10,10a-hexahydro-1H,7H-dipyrrolo[3,4-b:3′,4′-f][1,4,5]oxathiazocine-8-carboxamide 5,5-dioxide], the EC50 was less than 1000 nM. Besides, the inhibition at 0.1 µM under setting [1] is greater than 50%.

On to `Cn1cc2c(c1C(=O)Nc1cc(F)c(F)c(F)c1)OCC1CN(S(C)(=O)=O)CC1NS2(=O)=O` (racemic) [Example E19, cis-7-methyl-2-(methylsulfonyl)-N-(3,4,5-trifluorophenyl)-2,3,3a,4,10,10a-hexahydro-1H,7H-dipyrrolo[3,4-b:3′,4′-f][1,4,5]oxathiazocine-8-carboxamide 5,5-dioxide], for which the half-maximal effective concentration (EC50) is less than 1000 nM. Moreover, under setting [1], the inhibition at 0.1 µM is greater than 50%. Consider `Cn1cc2c(c1C(=O)Nc1cc(F)c(F)c(F)c1)OCC1CN(S(=O)(=O)C3CC3)CC1NS2(=O)=O` (racemic) [Example E20, cis-2-(cyclopropylsulfonyl)-7-methyl-N-(3,4,5-trifluorophenyl)-2,3,3a,4,10,10a-hexahydro-1H,7H-dipyrrolo[3,4-b:3′,4′-f][1,4,5]oxathiazocine-8-carboxamide 5,5-dioxide], for which the EC50 is less than 1000 nM. Also, the inhibition at 0.1 µM under setting [1] is greater than 50%. In the case of `CC(C)NS(=O)(=O)N1CC2COc3c(cn(C)c3C(=O)Nc3cc(F)c(F)c(F)c3)S(=O)(=O)NC2C1` (racemic) [Example E21, cis-2-(N-isopropylsulfamoyl)-7-methyl-N-(3,4,5-trifluorophenyl)-2,3,3a,4,10,10a-hexahydro-1H,7H-dipyrrolo[3,4-b:3′,4′-f][1,4,5]oxathiazocine-8-carboxamide 5,5-dioxide], the EC50 is less than 1000 nM. Further, under setting [1], the inhibition at 0.1 µM was greater than 50%. For `Cn1cc2c(c1C(=O)Nc1cc(F)c(F)c(F)c1)OCC1CN(C(=O)OC3CO[C@H]4OCC[C@@H]34)CC1NS2(=O)=O` (mixture of isomers) [Example E22, cis-(3R,3aS,6aR)-hexahydrofuro[2,3-b]furan-3-yl 7-methyl-8-((3,4,5-trifluorophenyl)carbamoyl)-3a,4,10,10a-tetrahydro-1H,7H-dipyrrolo[3,4-b:3′,4′-f][1,4,5]oxathiazocine-2(3H)-carboxylate 5,5-dioxide], the EC50 was less than 1000 nM. Further, the inhibition at 0.1 µM under setting [1] is greater than 50%.

For the compound `CNC(=O)N1CC2COc3c(cn(C)c3C(=O)Nc3cc(F)c(F)c(F)c3)S(=O)(=O)NC2C1` (racemic) [Example E23, (3aR,10aR) and (3aS,10aS)—N^2,7-dimethyl-N^8-(3,4,5-trifluorophenyl)-3a,4,10,10a-tetrahydro-1H,7H-dipyrrolo[3,4-b:3′,4′-f][1,4,5]oxathiazocine-2,8(3H)-dicarboxamide 5,5-dioxide], the EC50 was less than 1000 nM. The inhibition at 0.1 µM under setting [1] is greater than 50%.

Consider `Cn1cc2c(c1C(=O)Nc1cc(F)c(F)c(F)c1)OCC1CN(C(=O)OC(C)(C)C)CC1NS2(=O)=O` (racemic) [Example E24, Tert-Butyl (3aS,10aS and 3aR,10aR) 7-methyl-8-((3,4,5-trifluorophenyl)carbamoyl)-3a,4,10,10a-tetrahydro-1H,7H-dipyrrolo[3,4-b:3′,4′-f][1,4,5]oxathiazocine-2(3H)-carboxylate 5,5-dioxide], for which the inhibition at 0.1 µM under setting [1] was greater than 50%.

Usually EC50 stands for the concentration needed to bring the measured effect to its halfway point.
